Legend:
[1] = Moisture sorption analysis (absorption and desorption), VTI microbalance, as a measure of physical stability; format: physicochemical; details: 25° C.
Experimental: Determination of Stability […] The moisture sorption analysis, absorption and desorption, respective was performed using a VTI microbalance, Model […] (VTI Corporation, USA) linked to an IBM PC. The relative humidity (RH) within the balance was monitored using a dew point analyser. […] The desorption profile was also obtained.

[2] = thermogravimetric measurement
[3] = water firmly bound in crystal lattice
[4] = background statement on the salt disclosed in WO 95/11891; cited from earlier work

## NC(=O)c1ccc(F)c2c1C[C@@H](N(C1CCC1)C1CCC1)CO2.O.O=C(O)C(O)C(O)C(=O)O [Example 2, (R)-3-N,N-dicyclobutylamino-8-fluoro-3,4-dihydro-2H-1-benzopyran-5-carboxamide Hydrogen (2R,3R)-Tartrate Monohydrate]
[1]; RH steps of 5%
  RH at which significant uptake of moisture was recorded: ≥ 60%
[1]; RH of 90%
  moisture absorbed: 2.5 % (w/w)
[1]; desorption after exposure up to 90% RH
  desorption profile: the moisture uptake is reversible
[2]
  initial weight loss (thermogravimetric): 4.104 % w/w
[3]
  heating temperature up to which crystal water is not released: up to 70 °C

## Cl.NC(=O)c1ccc(F)c2c1C[C@@H](N(C1CCC1)C1CCC1)CO2 [HCl salt, (R)-3-N,N-dicyclobutylamino-8-fluoro-3,4-dihydro-2H-1-benzopyran-5-carboxamide, reference compound]
[1]; 85% relative humidity
  behaviour at high relative humidity: exhibits deliquescence
  moisture taken up: approximately 20 % w/w
[4]
  hygroscopicity / physical stability during manufacturing and storage: hygroscopic and thus physically unstable

From US6858645B2, “Tartrate salts of (R) -3-N,N- dicyclobutylamino-8-fluoro-3,4-dihydro-2H-1- benzopyran-5-carboxamide” (AstraZeneca AB, priority 1997, dated 2005)
